Results published in the supplement of paper PMC13207355.

Tests used:
Conditions in all cases: exposure time: 72 h
FT3469 [1] = normal neural stem cell line; assay: surviving fraction (nuclei count normalised to DMSO); higher = more cells surviving (less toxic)
E34 [2] = patient-derived glioblastoma stem cells of proneural subtype; assay: as above
E21 [3] = patient-derived glioblastoma stem cells of mesenchymal subtype; assay: as above
E28 [4] = patient-derived glioblastoma stem cells of classical subtype; assay: as above
E31 [5] = patient-derived glioblastoma stem cells of proneural subtype; assay: as above
E13 [6] = patient-derived glioblastoma stem cells of classical subtype; assay: as above
E57 [7] = patient-derived glioblastoma stem cells of mesenchymal subtype; assay: as above
FT3469 [8] = assay: phenotypic distance (Euclidean, principal components) from DMSO controls (arbitrary units); higher = stronger morphological change
E34 [9] = assay: as above
E21 [10] = assay: as above
E28 [11] = assay: as above
E31 [12] = assay: as above
E13 [13] = assay: as above
E57 [14] = assay: as above
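For phenotypic distance (Euclidean, principal components) from DMSO controls in this document: cell Painting imaging in 384-well plates, CellProfiler features reduced to at least 20 principal components, Euclidean distance versus same-plate DMSO vehicle wells (0.1% v/v), median over six images per well.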
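For surviving fraction (nuclei count normalised to DMSO) in this document: nuclei counted by high-content imaging of Hoechst-stained cells in laminin-coated 384-well plates, relative to 0.1% DMSO vehicle wells, with staurosporine as cell-death control.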

Nc1ncn([C@@H]2O[C@H](CO)[C@@H](O)[C@H]2O)c(=O)n1 [5-azacytidine]
Conditions	phenotypic distance	surviving fraction
E13 [6], 4.11523 nM	–	0.808
E13 [6], 12.34567901 nM	–	0.874
E13 [6], 37.037 nM	–	0.939
E13 [6], 111.1111111 nM	–	0.778
E13 [6], 333.333 nM	–	0.755
E13 [6], 1000 nM	–	0.67
E13 [6], 3000 nM	–	0.358
E13 [13], 4.11523 nM	0.922	–
E13 [13], 12.34567901 nM	0.542	–
E13 [13], 37.037 nM	0.817	–
E13 [13], 111.1111111 nM	1.58	–
E13 [13], 333.333 nM	1.47	–
E13 [13], 1000 nM	3	–
E13 [13], 3000 nM	6.57	–
E21 [3], 4.11523 nM	–	0.745
E21 [3], 12.34567901 nM	–	0.93
E21 [3], 37.037 nM	–	0.921
E21 [3], 111.1111111 nM	–	0.871
E21 [3], 333.333 nM	–	0.665
E21 [3], 1000 nM	–	0.6
E21 [3], 3000 nM	–	0.426
E21 [10], 4.11523 nM	1.24	–
E21 [10], 12.34567901 nM	5.31	–
E21 [10], 37.037 nM	1.2	–
E21 [10], 111.1111111 nM	1.66	–
E21 [10], 333.333 nM	1.85	–
E21 [10], 1000 nM	2.19	–
E21 [10], 3000 nM	3.53	–
E28 [4], 4.11523 nM	–	0.899
E28 [4], 12.34567901 nM	–	1.22
E28 [4], 37.037 nM	–	0.711
E28 [4], 111.1111111 nM	–	0.969
E28 [4], 333.333 nM	–	0.753
E28 [4], 1000 nM	–	0.984
E28 [4], 3000 nM	–	0.497
E28 [11], 4.11523 nM	0.861	–
E28 [11], 12.34567901 nM	1.19	–
E28 [11], 37.037 nM	1.09	–
E28 [11], 111.1111111 nM	0.941	–
E28 [11], 333.333 nM	0.932	–
E28 [11], 1000 nM	1.03	–
E28 [11], 3000 nM	1.84	–
E31 [5], 4.11523 nM	–	0.945
E31 [5], 12.34567901 nM	–	0.84
E31 [5], 37.037 nM	–	0.848
E31 [5], 111.1111111 nM	–	0.9
E31 [5], 333.333 nM	–	0.718
E31 [5], 1000 nM	–	0.644
E31 [5], 3000 nM	–	0.298
E31 [12], 4.11523 nM	1.21	–
E31 [12], 12.34567901 nM	1.33	–
E31 [12], 37.037 nM	1.03	–
E31 [12], 111.1111111 nM	0.932	–
E31 [12], 333.333 nM	1.18	–
E31 [12], 1000 nM	1.85	–
E31 [12], 3000 nM	3.43	–
E34 [2], 4.11523 nM	–	0.97
E34 [2], 12.34567901 nM	–	1.02
E34 [2], 37.037 nM	–	1.01
E34 [2], 111.1111111 nM	–	1.07
E34 [2], 333.333 nM	–	0.862
E34 [2], 1000 nM	–	0.731
E34 [2], 3000 nM	–	0.643
E34 [9], 4.11523 nM	0.558	–
E34 [9], 12.34567901 nM	0.75	–
E34 [9], 37.037 nM	1.12	–
E34 [9], 111.1111111 nM	0.943	–
E34 [9], 333.333 nM	1.52	–
E34 [9], 1000 nM	1.39	–
E34 [9], 3000 nM	2.19	–
E57 [7], 4.11523 nM	–	0.959
E57 [7], 12.34567901 nM	–	0.904
E57 [7], 37.037 nM	–	0.961
E57 [7], 111.1111111 nM	–	0.841
E57 [7], 333.333 nM	–	0.78
E57 [7], 1000 nM	–	0.507
E57 [7], 3000 nM	–	0.287
E57 [14], 4.11523 nM	0.981	–
E57 [14], 12.34567901 nM	1.07	–
E57 [14], 37.037 nM	1.13	–
E57 [14], 111.1111111 nM	1.59	–
E57 [14], 333.333 nM	1.59	–
E57 [14], 1000 nM	3.31	–
E57 [14], 3000 nM	5.71	–
FT3469 [1], 4.11523 nM	–	0.82
FT3469 [1], 12.34567901 nM	–	0.768
FT3469 [1], 37.037 nM	–	0.86
FT3469 [1], 111.1111111 nM	–	0.944
FT3469 [1], 333.333 nM	–	0.915
FT3469 [1], 1000 nM	–	0.734
FT3469 [1], 3000 nM	–	0.665
FT3469 [8], 4.11523 nM	1.08	–
FT3469 [8], 12.34567901 nM	1.06	–
FT3469 [8], 37.037 nM	0.921	–
FT3469 [8], 111.1111111 nM	0.795	–
FT3469 [8], 333.333 nM	0.957	–
FT3469 [8], 1000 nM	1.34	–
FT3469 [8], 3000 nM	2.03	–
